In PMC6211260 (Journal of Enzyme Inhibition and Medicinal Chemistry, 2018):

What was measured:
Assay type in all cases: cell-based
[1] = system: SK-MEL-5 melanoma cell line; assay: NCI-60 single-dose screening; conditions: 10 µM
Method: (§1) Screening against the cancer cell lines was carried out at the National Cancer Institute (NCI, Bethesda, Maryland, USA) applying the standard protocol of the NCI[22].
(§2) The final target compounds were submitted to the National Cancer Institute (NCI), Maryland, USA[23]. Thirty-one compounds were selected to be tested over 60 cell lines at single dose 10 µM.

[2] = system: HT29 colon cancer cell line; assay: NCI-60 single-dose screening; conditions: 10 µM
Method: as §1, §2

[3] = system: Colo 205 colon cancer cell line; assay: NCI-60 single-dose screening; conditions: 10 µM
Method: as §1, §2

NCI-60 cell line panel = assay: NCI-60 single-dose (10 µM) antiproliferative screening, mean over panel; conditions: single-dose 10 µM
Method: as §1, §2

[4] = system: K-562 leukaemia cell line; assay: NCI five-dose testing; conditions: Homo sapiens
Method: as §1

[5] = system: PC-3 prostate cancer cell line; assay: NCI five-dose testing; conditions: Homo sapiens
Method: as §1

[6] = system: HOP-92 non-small cell lung cancer cell line; assay: NCI five-dose testing; conditions: Homo sapiens
Method: as §1

[7] = system: OVCAR-4 ovarian cancer cell line; assay: NCI five-dose testing; conditions: Homo sapiens
Method: as §1

[8] = system: HT-29 colon cancer cell line; assay: NCI five-dose testing; conditions: Homo sapiens
Method: as §1

[9] = system: SK-MEL-5 melanoma cell line; assay: NCI five-dose testing; conditions: Homo sapiens
Method: as §1

[10] = system: U251 CNS cancer cell line; assay: NCI five-dose testing; conditions: Homo sapiens
Method: as §1

[11] = system: A498 renal cancer cell line; assay: NCI five-dose testing; conditions: Homo sapiens
Method: as §1

[12] = system: MDA-MB-468 breast cancer cell line; assay: NCI five-dose testing; conditions: Homo sapiens
Method: as §1

CNS cancer cell lines = assay: NCI five-dose testing, subpanel mean; conditions: subpanel IV: CNS cancer
Method: as §1

breast cancer cell lines = assay: NCI five-dose testing, subpanel mean; conditions: subpanel IX: breast cancer
Method: as §1

colon cancer cell lines = assay: NCI five-dose testing, subpanel mean; conditions: subpanel III: colon cancer
Method: as §1

[13] = system: ovarian cancer cell lines; assay: NCI five-dose testing, subpanel mean; conditions: subpanel VI: ovarian cancer
Method: as §1

renal cancer cell lines = assay: NCI five-dose testing, subpanel mean; conditions: subpanel VII: renal cancer
Method: as §1

[14] = system: non-small cell lung cancer cell lines; assay: NCI five-dose testing, subpanel mean; conditions: subpanel II: non-small cell lung cancer
Method: as §1

[15] = system: prostate cancer cell lines; assay: NCI five-dose testing, subpanel mean; conditions: subpanel VIII: prostate cancer
Method: as §1

melanoma cell lines = assay: NCI five-dose testing, subpanel mean; conditions: subpanel V: melanoma
Method: as §1

Leukaemia cell lines = assay: NCI five-dose testing, subpanel mean; conditions: subpanel I: Leukaemia
Method: as §1

Q: Which per cent inhibition [1] does the source give for COc1cccc(-c2nn(-c3ccccc3)cc2-c2ccnc(NCCCNS(=O)(=O)c3ccc(C(F)(F)F)cc3)c2)c1 [Compound 2g, N-(3-((4-(3-(3-Methoxyphenyl)-1-phenyl-1H-pyrazol-4-yl)pyridin-2-yl)amino)propyl)-4-(trifluoromethyl)benzenesulfonamide] here?
A: Its per cent inhibition is “lethal effect”.

Q: What about the per cent inhibition [2] of the same compound?
A: The per cent inhibition was “lethal effect”.

Q: And the per cent inhibition [3]?
A: Its per cent inhibition is “lethal effect”.

Q: What about the inhibition at 10 µM (NCI-60 cell line panel; 60-cancer cell line screening) of the same compound?
A: Its inhibition at 10 µM is 76.5%.

Q: And the “number of cell lines with more than 100% inhibition” value (NCI-60 cell line panel; NCI-60 panel)?
A: Its value is 13.

Q: What about the CC50 ([4]; K562, read-out: LD50 (lethal dose 50)) of the same compound?
A: The CC50 was over 100 µM.

Q: And the IC50 ([4]; K562, K-562)?
A: Its IC50 is 3.06 µM.

Q: What about the IC (TGI) ([4]; K562, K-562, read-out: TGI (total growth inhibition concentration)) of the same compound?
A: The IC (TGI) was over 100 µM.

Q: And the LC50 (lethal concentration 50) ([5]; PC-3, read-out: LD50 (lethal dose 50))?
A: The LC50 (lethal concentration 50) was over 100 µM.

Q: What about the IC50 ([5]; PC-3, read-out: IC50) of the same compound?
A: Its IC50 is 3.36 µM.

Q: What about the IC (TGI) ([5]; PC-3, read-out: TGI (total growth inhibition concentration)) of the same compound?
A: The IC (TGI) was over 100 µM.

Q: And the IC50 ([6]; HOP-92)?
A: Its IC50 is 3.68 µM.

Q: What about the IC (TGI) ([6]; HOP-92, HOP-92, read-out: TGI (total growth inhibition concentration)) of the same compound?
A: The IC (TGI) was over 100 µM.

Q: What about the LD50 (lethal dose 50) ([6]; HOP-92, read-out: LD50 (lethal dose 50)) of the same compound?
A: The LD50 (lethal dose 50) was over 100 µM.

Q: And the IC50 ([7]; OVCAR-4)?
A: Its IC50 is 4.36 µM.

Q: And the LC50 (lethal concentration 50) ([7]; OVCAR-4, read-out: LD50 (lethal dose 50))?
A: Its LC50 (lethal concentration 50) is over 100 µM.

Q: What about the IC (TGI) ([7]; OVCAR-4, read-out: TGI (total growth inhibition concentration)) of the same compound?
A: Its IC (TGI) is over 100 µM.

Q: And the CC50 ([8]; HT-29, read-out: LD50 (lethal dose 50))?
A: Its CC50 is over 100 µM.

Q: What about the IC50 ([8]; HT-29, read-out: IC50) of the same compound?
A: Its IC50 is 3.21 µM.

Q: And the IC (TGI) ([8]; HT-29, read-out: TGI (total growth inhibition concentration))?
A: The IC (TGI) was 10 µM.

Q: And the IC50 ([9]; SK-MEL-5)?
A: Its IC50 is 2.18 µM.

Q: And the LC50 (lethal concentration 50) ([9]; SK-MEL-5, read-out: LD50 (lethal dose 50))?
A: The LC50 (lethal concentration 50) was 23.1 µM.

Q: What about the IC (TGI) ([9]; SK-MEL-5, read-out: TGI (total growth inhibition concentration)) of the same compound?
A: Its IC (TGI) is 5 µM.

Q: And the CC50 ([10]; U-251, read-out: LD50 (lethal dose 50))?
A: The CC50 was over 100 µM.

Q: What about the IC50 ([10]; U-251, U251, read-out: IC50) of the same compound?
A: The IC50 was 5.63 µM.

Q: What about the IC (TGI) ([10]; U-251, U251, read-out: TGI (total growth inhibition concentration)) of the same compound?
A: Its IC (TGI) is over 100 µM.

Q: What about the IC50 ([11]; A498) of the same compound?
A: Its IC50 is 3.8 µM.

Q: And the LC50 (lethal concentration 50%) ([11]; A498, read-out: LD50 (lethal dose 50))?
A: The LC50 (lethal concentration 50%) was over 100 µM.

Q: And the IC (TGI) ([11]; A498, read-out: TGI (total growth inhibition concentration))?
A: The IC (TGI) was over 100 µM.

Q: What about the IC50 ([12]; MDA-MB-468) of the same compound?
A: Its IC50 is 3.11 µM.

Q: And the CC50 ([12]; MDA-MB-468, read-out: LD50 (lethal dose 50))?
A: Its CC50 is over 100 µM.

Q: What about the IC (TGI) ([12]; MDA-MB-468, read-out: TGI (total growth inhibition concentration)) of the same compound?
A: Its IC (TGI) is over 100 µM.

Q: And the IC50 (CNS cancer cell lines)?
A: Its IC50 is 5.28 µM.

Q: What about the IC50 (breast cancer cell lines) of the same compound?
A: Its IC50 is 4.05 µM.

Q: What about the IC50 (colon cancer cell lines) of the same compound?
A: The IC50 was 4.91 µM.

Q: What about the IC50 [13] of the same compound?
A: The IC50 was 6.1 µM.

Q: And the IC50 (renal cancer cell lines)?
A: Its IC50 is 5.32 µM.

Q: And the IC50 [14]?
A: The IC50 was 6.36 µM.

Q: And the IC50 [15]?
A: Its IC50 is 13 µM.

Q: What about the IC50 (melanoma cell lines) of the same compound?
A: The IC50 was 4.94 µM.

Q: What about the IC50 (Leukaemia cell lines) of the same compound?
A: Its IC50 is 3.35 µM.
